The values that follow come from ChEMBL document CHEMBL1201862, “PubChem BioAssay data set” (2004).

Assay [1] deals with Intestinal-type alkaline phosphatase (Mus musculus, UniProt P24822). Put plainly: PubChem AID 488785. The format is functional.
The target in assay [2] is T1, Alkaline phosphatase, tissue-nonspecific isozyme (Homo sapiens, UniProt P05186).
T1 sequence (P05186 whole entry): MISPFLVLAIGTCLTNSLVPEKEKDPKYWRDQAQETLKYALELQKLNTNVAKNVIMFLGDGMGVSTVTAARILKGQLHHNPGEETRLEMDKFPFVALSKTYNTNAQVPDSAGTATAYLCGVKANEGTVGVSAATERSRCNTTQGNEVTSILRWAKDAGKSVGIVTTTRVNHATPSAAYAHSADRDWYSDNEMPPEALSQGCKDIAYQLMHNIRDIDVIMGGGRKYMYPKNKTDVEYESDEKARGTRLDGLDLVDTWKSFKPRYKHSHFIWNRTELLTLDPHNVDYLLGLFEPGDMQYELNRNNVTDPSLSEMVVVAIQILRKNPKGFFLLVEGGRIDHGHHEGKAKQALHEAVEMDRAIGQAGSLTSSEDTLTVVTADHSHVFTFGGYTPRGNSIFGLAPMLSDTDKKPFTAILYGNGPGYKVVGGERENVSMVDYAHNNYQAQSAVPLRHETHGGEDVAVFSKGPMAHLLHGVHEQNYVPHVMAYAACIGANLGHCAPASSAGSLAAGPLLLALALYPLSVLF
Put plainly: TNAP enzyme inhibition by screening hits, dose response, selectivity assay for mouse IAP inhibitor project, biochemical, human TNAP, uHTS hits (AID 488906). The assay is classed as functional.

For assay [3], the target named is Intestinal-type alkaline phosphatase (Homo sapiens, UniProt P09923). Briefly: inhibition of human intestinal alkaline phosphatase – biochemical, dose response (AID 488876). The format is functional.
Chain of Intestinal-type alkaline phosphatase (Homo sapiens, UniProt P09923) (P09923 whole entry): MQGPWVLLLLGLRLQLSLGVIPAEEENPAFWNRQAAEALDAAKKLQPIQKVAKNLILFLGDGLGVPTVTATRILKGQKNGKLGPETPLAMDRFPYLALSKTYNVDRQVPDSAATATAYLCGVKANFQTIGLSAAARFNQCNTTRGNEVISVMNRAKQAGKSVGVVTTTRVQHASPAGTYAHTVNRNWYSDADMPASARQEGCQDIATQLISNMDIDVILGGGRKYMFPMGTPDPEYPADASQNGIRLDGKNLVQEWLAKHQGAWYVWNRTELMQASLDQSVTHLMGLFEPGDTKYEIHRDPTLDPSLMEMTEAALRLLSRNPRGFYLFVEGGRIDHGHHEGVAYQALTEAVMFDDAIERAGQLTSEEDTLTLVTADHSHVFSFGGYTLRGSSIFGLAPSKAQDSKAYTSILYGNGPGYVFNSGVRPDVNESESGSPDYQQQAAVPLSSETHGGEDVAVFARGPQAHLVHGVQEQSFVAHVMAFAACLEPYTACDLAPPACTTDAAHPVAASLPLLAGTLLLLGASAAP
The target in assay [4] is T2, Long-chain-fatty-acid--AMP ligase FadD28 (Mycobacterium tuberculosis, UniProt P9WQ59).
T2 sequence (P9WQ59 whole entry): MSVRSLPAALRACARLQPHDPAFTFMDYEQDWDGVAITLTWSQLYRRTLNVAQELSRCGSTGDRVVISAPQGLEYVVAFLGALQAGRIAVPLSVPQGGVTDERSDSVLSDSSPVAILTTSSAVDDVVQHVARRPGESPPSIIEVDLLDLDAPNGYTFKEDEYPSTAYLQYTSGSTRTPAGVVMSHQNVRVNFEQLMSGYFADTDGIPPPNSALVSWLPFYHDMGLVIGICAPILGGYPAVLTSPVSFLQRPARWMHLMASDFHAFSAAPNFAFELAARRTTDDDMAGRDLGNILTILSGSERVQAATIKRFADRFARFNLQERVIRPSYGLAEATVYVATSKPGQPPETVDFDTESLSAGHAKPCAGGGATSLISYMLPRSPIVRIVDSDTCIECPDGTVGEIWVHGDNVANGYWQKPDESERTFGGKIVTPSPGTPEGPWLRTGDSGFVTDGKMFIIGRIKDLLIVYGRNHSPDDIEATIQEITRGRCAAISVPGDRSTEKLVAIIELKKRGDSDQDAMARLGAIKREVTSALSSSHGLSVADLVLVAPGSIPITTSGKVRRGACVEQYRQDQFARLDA
Put plainly: Fluorescence polarization aasay to screen for inhibitors that compete for the binding of FadD28 to a bisubstrate Measured in Biochemical System Using Plate Reader - 2147-01_Inhibitor_Dose_CherryPick_Activity. The assay is classed as functional, Mycobacterium tuberculosis H37Rv.

Assay [5] relates to HEK293. Briefly: NOD1 signaling inhibitors, primary screen, cell-based, luminescence, uHTS (AID 1578). The assay is classed as functional. The settings on record: Homo sapiens.
Assay [6] concerns HEK293. Briefly: cells. The assay is classed as functional, cell-based. The note with it: Homo sapiens.
Assay [7] relates to HEK293. Briefly: cells. The format is functional, cell-based. The note with it: Homo sapiens. The source holds these as a separate data set.
The test system of assay [8] is HEK293. Briefly: NOD2 signaling inhibitors in MDP-stimulated cells, cell-based, uHTS, luminescence (AID 2001). The format is functional. The settings on record: Homo sapiens.
The target in another assay is Tumor necrosis factor (Homo sapiens, UniProt P01375). Put plainly: TNFa-triggered NF-kB activation inhibitors, SAR follow-up, cell-based, revised (AID 2337). The format is functional.
Chain of Tumor necrosis factor (P01375 whole entry, the tested form may be a part): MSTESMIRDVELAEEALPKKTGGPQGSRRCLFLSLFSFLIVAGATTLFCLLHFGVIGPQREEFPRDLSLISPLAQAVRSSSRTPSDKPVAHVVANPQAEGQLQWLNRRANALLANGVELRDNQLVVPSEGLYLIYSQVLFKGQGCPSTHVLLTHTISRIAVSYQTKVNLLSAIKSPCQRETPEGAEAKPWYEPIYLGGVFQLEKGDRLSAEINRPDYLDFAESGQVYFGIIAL
In assay [9] the target is Nucleotide-binding oligomerization domain-containing protein 1 (Homo sapiens, UniProt Q9Y239). Put plainly: NOD1 signaling inhibitors, SAR follow-up, revised (AID 2333). The format is functional.
Chain of Nucleotide-binding oligomerization domain-containing protein 1 (Q9Y239 whole entry, the tested form may be a part): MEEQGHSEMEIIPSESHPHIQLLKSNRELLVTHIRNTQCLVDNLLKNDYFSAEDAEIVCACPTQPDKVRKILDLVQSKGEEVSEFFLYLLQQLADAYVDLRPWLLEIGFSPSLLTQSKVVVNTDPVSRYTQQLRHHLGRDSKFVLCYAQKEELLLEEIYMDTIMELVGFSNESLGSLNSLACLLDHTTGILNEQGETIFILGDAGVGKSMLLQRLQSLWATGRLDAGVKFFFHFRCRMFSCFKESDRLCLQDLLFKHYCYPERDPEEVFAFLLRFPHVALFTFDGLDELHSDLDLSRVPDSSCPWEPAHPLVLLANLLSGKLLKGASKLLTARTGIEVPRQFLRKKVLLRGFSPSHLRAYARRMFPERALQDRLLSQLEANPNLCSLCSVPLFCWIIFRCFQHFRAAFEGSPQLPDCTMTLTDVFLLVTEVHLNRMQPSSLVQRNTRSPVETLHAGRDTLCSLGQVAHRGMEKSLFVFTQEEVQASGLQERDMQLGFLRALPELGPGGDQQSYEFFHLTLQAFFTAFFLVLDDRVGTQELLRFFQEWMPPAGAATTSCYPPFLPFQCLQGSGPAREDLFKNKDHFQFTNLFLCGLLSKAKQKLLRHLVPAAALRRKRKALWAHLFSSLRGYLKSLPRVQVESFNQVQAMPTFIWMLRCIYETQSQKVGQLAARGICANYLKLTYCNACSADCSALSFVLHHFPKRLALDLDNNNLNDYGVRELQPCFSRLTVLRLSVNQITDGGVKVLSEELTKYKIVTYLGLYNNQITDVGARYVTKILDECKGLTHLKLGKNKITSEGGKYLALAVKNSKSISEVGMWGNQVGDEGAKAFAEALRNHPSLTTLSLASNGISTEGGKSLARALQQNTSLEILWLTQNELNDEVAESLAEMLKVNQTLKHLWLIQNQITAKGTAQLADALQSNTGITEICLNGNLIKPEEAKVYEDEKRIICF
Assay [10] addresses Nucleotide-binding oligomerization domain-containing protein 2 (Homo sapiens, UniProt Q9HC29). Put plainly: PubChem AID 2334. The format is functional.
In assay [11] the target is T3, Microphthalmia-associated transcription factor (Homo sapiens, UniProt O75030).
T3 sequence (O75030 whole entry): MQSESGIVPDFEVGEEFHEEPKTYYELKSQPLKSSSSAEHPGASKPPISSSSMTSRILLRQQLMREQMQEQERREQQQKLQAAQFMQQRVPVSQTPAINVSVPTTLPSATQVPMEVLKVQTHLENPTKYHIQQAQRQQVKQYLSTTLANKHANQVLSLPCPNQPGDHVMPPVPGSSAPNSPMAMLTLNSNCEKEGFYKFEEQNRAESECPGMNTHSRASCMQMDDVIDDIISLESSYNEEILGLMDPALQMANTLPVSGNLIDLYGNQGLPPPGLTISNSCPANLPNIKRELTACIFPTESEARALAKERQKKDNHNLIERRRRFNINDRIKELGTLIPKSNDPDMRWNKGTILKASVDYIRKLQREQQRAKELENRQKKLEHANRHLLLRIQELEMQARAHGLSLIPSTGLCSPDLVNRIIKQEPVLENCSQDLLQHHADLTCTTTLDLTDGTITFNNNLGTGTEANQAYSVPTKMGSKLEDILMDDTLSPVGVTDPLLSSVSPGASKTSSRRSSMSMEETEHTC
Briefly: TRPM1 promoter luciferase signal decrease, dose response, MITF inhibitor project, cell-based, SK-MEL-5, cherry-picked, set 3 (AID 493073).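 Further: SK-MEL-5 melanoma cells with luciferase driven by the MITF target TRPM1 promoter.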 The format is functional.

Assay [12] is described as follows: cytotoxicity in HEK-293T cells, dose response, cytotoxicity control for BCR NF-kB inhibitor project, luminescence, B-cell screen hits (AID 489021).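 Further: HEK-293T cells carrying an NF-kB luciferase reporter; cells exposed to compound for about 14 hours before viability readout.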 The format is functional, cell-based.
The next assay relates to Jurkat. Briefly: SAR Analysis of small molecule inhibitors of […] specific antigen receptor-induced NF-kB activation in a Jurkat cell line using a luminescence assay - Set 3. [Related pubchem assays (depositor defined):AID435022, AID435025, AID465]. The format is functional, cell-based. The note with it: Homo sapiens.
The subject of assay [13] is HEK293. Put plainly: SAR Analysis of small molecule inhibitors of B-cell specific antigen receptor-induced NF-kB activation in a HEK-293T cell line using a luminescence assay - Set 2. [Related pubchem assays (depositor defined):AID435022, AID435025, AID489021]. The note with it: Homo sapiens. The assay is classed as functional, cell-based.
For assay [14], the system named is HEK293. Briefly: cytotoxicity in HEK293T NF-kB-Luc cells, SAR follow-up, cytotoxicity control for NF-kB activator project, cell-based, resazurin fluorescence (AID 493251). The format is functional. The note with it: Homo sapiens. Background: Alamar Blue is a resazurin reagent that responds to reducing activity.
The test system of assay [15] is HEK293. Put plainly: cells. The note with it: Homo sapiens.
A short description of assay [16]: Luminescence Cell-Based Dose Retest to Confirm Inhibitors of Cancer Stem Cells. [Related pubchem assays (depositor defined):AID2717, AID2721]. The format is functional. The settings on record: Homo sapiens.
A short description of assay [17]: cytotoxicity in HMLE control line with eGFP shRNA, dose response, counter-screen for HMLE_sh_ECad selective toxicity project, cell-based, HMLE_sh_eGFP, luminescence (AID 463074).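 Further: HMLE human mammary epithelial cells expressing control shRNA against eGFP.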 The format is functional, Homo sapiens. (The purpose of a counterscreen is to sort out artefacts and off-target activity.)
The subject of a further assay is Vero. Put plainly: cells. The format is functional. The note with it: Chlorocebus sabaeus.
Assay [18] in a line: ADAM10 inhibitors, peptide cleavage, dose response, biochemical, QFRET (AID 743254).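 Further: ADAM10 enzyme with the DM2 quenched FRET peptide as substrate; EDANS fluorescence gain as the protease cuts the substrate; inhibitor potency against ADAM10 proteolytic activity.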
In assay [19] the target is Disintegrin and metalloproteinase domain-containing protein 17 (Homo sapiens, UniProt P78536). Put plainly: ADAM17 protease inhibitors, dose response, counter-screen for ADAM10 exosite inhibitor project, biochemical, quenched FRET substrate (AID 743253).
Chain of Disintegrin and metalloproteinase domain-containing protein 17 (P78536 whole entry, the tested form may be a part): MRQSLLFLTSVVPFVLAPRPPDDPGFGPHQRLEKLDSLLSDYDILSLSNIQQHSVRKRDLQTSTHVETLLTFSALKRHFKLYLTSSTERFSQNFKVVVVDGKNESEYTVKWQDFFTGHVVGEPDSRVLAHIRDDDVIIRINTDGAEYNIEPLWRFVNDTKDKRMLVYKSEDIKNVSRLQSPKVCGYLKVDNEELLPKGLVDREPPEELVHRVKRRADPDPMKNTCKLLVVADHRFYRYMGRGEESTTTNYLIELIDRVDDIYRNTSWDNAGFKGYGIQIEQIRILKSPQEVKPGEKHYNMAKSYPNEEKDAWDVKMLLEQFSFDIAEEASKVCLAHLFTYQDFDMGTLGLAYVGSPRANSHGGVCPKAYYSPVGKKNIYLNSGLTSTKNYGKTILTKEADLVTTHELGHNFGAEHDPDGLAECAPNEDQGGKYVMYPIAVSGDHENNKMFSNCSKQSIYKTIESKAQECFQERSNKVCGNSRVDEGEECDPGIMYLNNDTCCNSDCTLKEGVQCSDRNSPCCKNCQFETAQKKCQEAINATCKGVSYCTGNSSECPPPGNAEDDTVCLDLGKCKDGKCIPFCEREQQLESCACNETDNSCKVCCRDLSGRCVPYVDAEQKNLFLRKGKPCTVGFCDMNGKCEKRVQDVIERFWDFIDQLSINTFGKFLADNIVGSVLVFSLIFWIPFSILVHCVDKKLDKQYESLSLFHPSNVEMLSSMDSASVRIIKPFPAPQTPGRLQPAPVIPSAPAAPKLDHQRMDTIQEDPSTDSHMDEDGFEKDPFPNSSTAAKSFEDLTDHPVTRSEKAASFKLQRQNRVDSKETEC
For assay [20], the system named is HEK293. Put plainly: cells. The settings on record: Homo sapiens. The source holds these as a separate data set.
The test system of assay [21] is HEK293. Put plainly: cells. The note with it: Homo sapiens. The source holds these as a separate data set.
The target in assay [22] is Kappa-type opioid receptor (Homo sapiens, UniProt P41145). Put plainly: SAR analysis of small molecule agonists of the kappa opioid receptor via a luminescent beta-arrestin assay - Set 3. [Related pubchem assays (depositor defined):AID1777, AID1785, AID1786, AID1966, AID2133, AID2136, AID2284, AID2500]. The assay is classed as functional.
Chain of Kappa-type opioid receptor (P41145 whole entry): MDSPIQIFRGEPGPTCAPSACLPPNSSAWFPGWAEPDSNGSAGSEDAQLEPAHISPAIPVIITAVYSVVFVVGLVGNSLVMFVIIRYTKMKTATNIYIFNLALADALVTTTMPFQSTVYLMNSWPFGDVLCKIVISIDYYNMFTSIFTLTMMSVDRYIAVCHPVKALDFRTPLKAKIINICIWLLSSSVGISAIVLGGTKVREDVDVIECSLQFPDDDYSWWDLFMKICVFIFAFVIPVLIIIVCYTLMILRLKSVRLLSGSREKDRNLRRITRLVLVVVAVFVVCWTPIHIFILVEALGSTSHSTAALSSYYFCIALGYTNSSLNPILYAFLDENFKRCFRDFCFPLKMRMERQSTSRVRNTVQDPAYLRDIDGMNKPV

Active and inactive are the calls of the source. Where only a bound is given, the exact number is not on record here.

Chain of Nucleotide-binding oligomerization domain-containing protein 2 (Q9HC29 whole entry, the tested form may be a part): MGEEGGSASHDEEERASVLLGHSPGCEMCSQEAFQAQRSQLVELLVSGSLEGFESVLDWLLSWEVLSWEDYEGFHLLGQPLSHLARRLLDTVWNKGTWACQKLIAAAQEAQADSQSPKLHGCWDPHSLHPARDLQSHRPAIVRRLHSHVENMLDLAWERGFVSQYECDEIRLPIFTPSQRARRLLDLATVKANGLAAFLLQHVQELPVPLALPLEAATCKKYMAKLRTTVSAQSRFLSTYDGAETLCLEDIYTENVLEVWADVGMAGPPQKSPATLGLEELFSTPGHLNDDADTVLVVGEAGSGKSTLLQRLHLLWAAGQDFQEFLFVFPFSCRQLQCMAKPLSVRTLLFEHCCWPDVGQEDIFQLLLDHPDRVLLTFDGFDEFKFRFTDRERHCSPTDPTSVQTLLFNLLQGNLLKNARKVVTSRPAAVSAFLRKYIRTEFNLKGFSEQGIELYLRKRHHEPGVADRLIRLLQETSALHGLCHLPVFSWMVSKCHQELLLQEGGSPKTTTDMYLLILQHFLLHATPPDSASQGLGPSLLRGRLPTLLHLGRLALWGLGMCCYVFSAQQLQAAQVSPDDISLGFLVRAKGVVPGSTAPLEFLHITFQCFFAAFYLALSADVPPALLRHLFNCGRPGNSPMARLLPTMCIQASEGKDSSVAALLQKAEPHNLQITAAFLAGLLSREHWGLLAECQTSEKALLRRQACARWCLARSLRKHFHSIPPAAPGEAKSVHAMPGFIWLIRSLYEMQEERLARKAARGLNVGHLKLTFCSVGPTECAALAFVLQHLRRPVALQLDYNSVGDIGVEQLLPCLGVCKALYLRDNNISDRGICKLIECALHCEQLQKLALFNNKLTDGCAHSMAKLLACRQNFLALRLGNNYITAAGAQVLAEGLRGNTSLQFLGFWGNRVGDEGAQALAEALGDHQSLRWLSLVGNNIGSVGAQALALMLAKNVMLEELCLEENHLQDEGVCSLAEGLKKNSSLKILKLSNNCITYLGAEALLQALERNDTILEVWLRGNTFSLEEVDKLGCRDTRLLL
Chain of Intestinal-type alkaline phosphatase (Mus musculus, UniProt P24822) (P24822 whole entry): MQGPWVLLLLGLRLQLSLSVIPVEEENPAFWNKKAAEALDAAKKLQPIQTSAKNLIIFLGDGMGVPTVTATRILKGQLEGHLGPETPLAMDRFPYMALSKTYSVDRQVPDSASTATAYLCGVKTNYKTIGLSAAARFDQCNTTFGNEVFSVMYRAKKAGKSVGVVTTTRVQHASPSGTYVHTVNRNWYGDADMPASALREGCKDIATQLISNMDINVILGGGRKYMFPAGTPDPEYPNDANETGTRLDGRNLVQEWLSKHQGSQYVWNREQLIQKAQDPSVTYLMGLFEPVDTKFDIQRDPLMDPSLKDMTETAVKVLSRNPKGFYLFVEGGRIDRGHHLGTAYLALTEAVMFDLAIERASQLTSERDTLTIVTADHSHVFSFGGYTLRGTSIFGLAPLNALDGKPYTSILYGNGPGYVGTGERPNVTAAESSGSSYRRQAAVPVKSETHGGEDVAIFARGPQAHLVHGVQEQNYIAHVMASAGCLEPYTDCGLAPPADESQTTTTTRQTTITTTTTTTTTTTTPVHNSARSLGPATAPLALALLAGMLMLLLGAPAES

As to `O=C(NN1C(=O)/C(=C/c2ccc(O)c(O)c2)SC1=S)c1ccccc1`, the concentration for half-maximal inhibition (IC50) (as a rule, the point on the concentration scale where inhibition reaches its midpoint) was 1.28 µM (active) in [1], 20 µM (active) in assay [2] and > 100 µM (inactive) in assay [3]. For the same compound, the half-maximal activity concentration (AC50) (usually the concentration giving half of the maximal activity seen) in [4] was 1.41 µM (active).
Take `CC(C)(C)c1ccc(-c2noc(CCC(=O)NCc3ccco3)n2)cc1`: the concentration for a half-maximal effect (EC50) (as a rule, the concentration that produces a half-maximal response) with HEK293 [5] is 8.42 µM (active). The IC50 was > 20 µM (inactive) in the assay with HEK293 [6]; > 20 µM (inactive) with HEK293 [7]; > 20 µM (inactive) in the assay on HEK293 [8]; 6.76 µM (active) on Tumor necrosis factor; 3.68 µM (active) in assay [9]; 2.16 µM (active) in assay [10]. The IC50 in [12] is > 80 µM (inactive); with Jurkat it was > 80 µM (inactive); in the assay with HEK293 [13], 2.39 µM (active); with HEK293 [14], 49.2 µM (inactive); in the assay with HEK293 [15], > 20 µM (inactive). Besides, in assay [11], the AC50 was 0.122 µM (active).
In the case of `Cc1cc(N/N=C/c2ccc(Cl)cc2Cl)nc(NCc2ccccc2)n1`, the figures for the AC50 in [16] and in [17] were 3.49 µM (active) and 32.2 µM (active), respectively. The CC50 (commonly the concentration that lowers cell viability or growth by half) in the assay with Vero is > 25 µM (active).
In the case of `O=S(=O)(NCC(Nc1ccc(Cl)cc1)c1ccccc1)c1ccc(Cl)cc1` (stereo not given), the IC50 is 11.7 µM (inactive) in assay [18] and > 69.5 µM (inactive) in [19]. In addition, the EC50 with HEK293 [20] and in the assay with HEK293 [21] was > 59.7 µM (inactive) each time.
Consider `c1ccc(CSc2nnc(-c3ccccn3)n2Cc2cccnc2)cc1`, for which the EC50 in assay [22] is > 20 µM (inactive).
